# From patent US20260373155A1, “TRANSDERMALLY- OR TOPICALLY-ADMINISTERED COMPOSITION COMPRISING THIENOPYRIDINE COMPOUND” (GY LIFE SCIENCES CO., LTD., priority 2022, published 2026)
# Experiments:
# [1] = Solution stability of the hydrochloride salt with solubilizer or thickener (days without precipitation); type: physicochemical; details: 0.3% hydrochloride salt, aqueous phase, room temperature
# Method: This experiment examined whether a solubilizer or thickener could maintain a stable solution (without solid precipitation due to self-aggregation) of the hydrochloride salt of the thienopyridine compound of Chemical Formula 1 in an aqueous phase at room temperature. Specifically, 0.3% of the hydrochloride salt was dissolved in a water-phase solution composed of water, PEG400, glycerol, propylene glycol, hexanediol, and polysorbate 60 (as per Table 3). It was heated at 80 °C with stirring for 10 minutes for complete dissolution, then cooled to room temperature. 1% (w/w) of urea or polyvinylpyrrolidone (PVP K-30) was tested as a solubilizer by being added to the solution.
# Additionally, 2% (w/w) of xanthan gum, carboxymethyl cellulose, or PEG-240/HDI copolymer bis-decyltetradeceth-20 ether was tested as a thickener. Various combinations were also tested. The day on which precipitation first appeared was noted by visual or microscopic observation. The maximum days with no precipitation was recorded. […] Confirmatory mass spectrometry and ^1H-NMR indicated the precipitate was the compound of Chemical Formula 1.
# [2] = Comparison of L-menthol with other known transdermal permeation enhancers (AUC∞ of the thienopyridine compound); type: in vivo; details: AUC∞ after transdermal administration, component replaced with water, mice, FIG. 3
# Method: Other reported transdermal permeation enhancers were tested to see how they affect the skin permeability of the thienopyridine compound.
# Variants of the Example 1 formulation were created by removing one of the following and replacing it with water: propylene glycol, glycerol, or urea. Each variant was administered transdermally to mice (n=3) as in Experimental Example 2. Blood samples were analyzed to obtain plasma concentration-time profiles and the resulting average AUC∞±SD. These were compared by bar chart (FIG. 3) with the Example 1 formulation (with L-menthol) and Comparative Example 1 (without L-menthol). The asterisk (*) indicates p<0.01 (t-test).
# [3] = Transdermal potential: plasma pharmacokinetics via topical, intravenous and intradermal routes in rats; type: in vivo, SD rats; details: 5 mpk; for AUC(0-inf) / AUC(0-t) at 24 h / Cmax / Tmax / half-life: rat, 5 mg/kg, male SD rats, phosphate salt form, plasma
# Method: An experiment was conducted to evaluate the transdermal potential of the thienopyridine compound (API) using 7-week-old male SD rats. Specifically, the same 5 mpk dose of the thienopyridine compound was administered via three routes-transdermal (topical), intravenous (tail vein), and intradermal injections-simultaneously, following the compositions and methods shown in Table 1 (n=3 per group). The plasma concentration of the thienopyridine compound and pharmacokinetic parameters were then measured for each route.
# In more detail, in each formulation the thienopyridine compound was used in phosphate salt form (compound:phosphoric acid=1:2.5 equivalents) at a concentration of 0.3 wt % in the carrier solution. For the transdermal formulation, the thienopyridine compound was first dissolved in a carrier solution lacking 3% […]™ EG, and then 3% […]™ EG (Seppic, France) was added with stirring for 3 minutes to impart viscosity. Blood samples were collected via the carotid artery at 0 (negative control sample), 0.03, 0.16, 0.25, 0.5, 1, 2, 4, 6, and 24 hours post-administration, placed into heparinized tubes, and centrifuged (3,000 rpm, 10 minutes). Plasma (13.5 μl) was stored at −20 °C until analyzed by LC-MS/MS within a week. Plasma concentrations of the thienopyridine compound were determined by LC-MS/MS. Each 13.5 μl plasma sample was mixed with 60 μl of acetonitrile containing 1 μg/mL of an internal standard, vortexed, and centrifuged at 6,000 rpm for 15 minutes; 50 μl of the supernatant was then mixed with 50 μl of distilled water for LC-MS/MS analysis. The LC-MS/MS system was an Agilent 1200 Series HPLC (Agilent, Santa Clara, CA) coupled with an AP13200® triple-quadrupole mass spectrometer (Applied Biosystems-SCIEX, Concord, Canada). The mobile phase was 0.1% formic acid in water (A) and acetonitrile (B). Chromatographic separation was achieved on a reverse-phase Atlantis™ T3 column (100×2.1 mm, 3 μm; Waters, Milford, MA) at a flow rate of 0.25 ml/min under a gradient. The LOQ was 9.7 ng/ml, and the correlation coefficient (R) for calibration was 0.997.
# Pharmacokinetic parameters were determined by noncompartmental analysis using WinNonlin® (Pharsight, Mountain View, CA). The maximum plasma concentration (Cmax) was taken directly from the plasma concentration-time profile, and time to reach Cmax (Tmax) was recorded. The area under the concentration-time curve from time zero to the last time point (AUC0-24) was calculated by the trapezoidal rule […]. AUC∞ was calculated by summing AUC0-24 and AUC24-∞, the latter obtained by dividing the 24-hour plasma concentration by the terminal elimination rate.
# [4] = tested on: Src/DDR tyrosine kinase family; details: see U.S. Pat. No. 9,062,066; cited from earlier work
# [5] = Sun X et al. 2012; cited from earlier work
# [6] = ultraviolet light; Korean Patent No. 10-1478302; cited from earlier work
# [7] = Ju Yong Song 2016 thesis; cited from earlier work
# [8] = Ju Yong Song 2016 thesis; cited from earlier work; remark: listed apart in the source
# [9] = Fowler A J et al. 2019; US 2019-0262323; cited from earlier work
# [10] = topical or ocular, topical application
smiles,measurement,setting,value
Oc1cccc(Nc2ccnc3cc(-c4cccc(CN5CCOCC5)c4)sc23)c1,maximum days with no precipitation,"[1]; thickener 2% PEG-240/HDI copolymer bis-decyltetradeceth-20 ether, solubilizer 1% polyvinylpyrrolidone (k30)",>7 days
same,maximum days with no precipitation,"[1]; thickener 2% PEG-240/HDI copolymer bis-decyltetradeceth-20 ether, solubilizer 1% urea",6 days
same,maximum days with no precipitation,"[1]; thickener 2% PEG-240/HDI copolymer bis-decyltetradeceth-20 ether, solubilizer none",6 days
same,maximum days with no precipitation,"[1]; thickener 2% carboxymethyl cellulose, solubilizer 1% polyvinylpyrrolidone (k30)",1 days
same,maximum days with no precipitation,"[1]; thickener 2% carboxymethyl cellulose, solubilizer 1% urea",1 days
same,maximum days with no precipitation,"[1]; thickener 2% carboxymethyl cellulose, solubilizer none",1 days
same,maximum days with no precipitation,"[1]; thickener 2% xanthan gum, solubilizer 1% polyvinylpyrrolidone (k30)",1 days
same,maximum days with no precipitation,"[1]; thickener 2% xanthan gum, solubilizer 1% urea",1 days
same,maximum days with no precipitation,"[1]; thickener 2% xanthan gum, solubilizer none",1 days
same,maximum days with no precipitation,"[1]; thickener none, solubilizer 1% polyvinylpyrrolidone (k30)",5 days
same,maximum days with no precipitation,"[1]; thickener none, solubilizer 1% urea",1 days
same,maximum days with no precipitation,"[1]; thickener none, solubilizer none",1 days
OCC(O)CO [glycerol],effect on transdermal permeability of the thienopyridine compound,[2],virtually no effect
CC1CCC(C(C)C)C(O)C1 (stereo not drawn) [menthol],effect on transdermal permeability of the thienopyridine compound,[2],uniquely strong enhancing effect
CC(O)CO (stereo not drawn) [propylene glycol],effect on transdermal permeability of the thienopyridine compound,[2],virtually no effect
"Oc1cccc(Nc2ccnc3cc(-c4cccc(CN5CCOCC5)c4)sc23)c1 [thienopyridine compound, 3-[[2-[3-(4-morpholinylmethyl)phenyl]thieno[3,2-b]pyridin-7-yl]amino]phenol]",AUC(0-inf),[3]; intradermal injection,446 ± 160 ng·h/mL
same,AUC(0-t) at 24 h,[3]; intradermal injection,315 ± 197 ng·h/mL
same,Cmax,[3]; intradermal injection,40.3 ± 15.7 ng/mL
same,Tmax,[3]; intradermal injection,0.65 ± 0.335 h
same,half-life,[3]; intradermal injection,8.32 ± 3.15 h
same,AUC(0-inf),[3]; intravenous (iv),619 ± 219 ng·h/mL
same,AUC(0-t) at 24 h,[3]; intravenous (iv),514 ± 222 ng·h/mL
same,half-life,[3]; intravenous (iv),2.74 ± 1.81 h
same,AUC(0-inf),[3]; [10],49.4 ± 37.7 ng·h/mL
same,AUC(0-t) at 24 h,[3]; [10],41.7 ± 8.84 ng·h/mL
same,Cmax,[3]; [10],10.4 ± 13.5 ng/mL
same,Tmax,[3]; [10],1.38 ± 1.75 h
same,half-life,[3]; [10],5.46 ± 2.29 h
same,transdermal absorption relative to intravenous or intradermal administration,"[3]; topical vs intravenous or intradermal, rats",about one-tenth
same,inhibition of kinase activity,[4],strongly inhibits
same,"anti-inflammatory and anti-scarring activities, repair of damaged skin tissue",[5],exhibits anti-inflammatory and anti-scarring activities and promotes the repair of damaged skin tissue
same,"anti-aging activity, wrinkle formation",[6],suppresses wrinkle formation
same,suppression of histamine-induced pruritus,[7],suppresses histamine-induced pruritus
same,suppression of SLIGRL-NH2-induced pruritus,[8],effectively suppresses
same,progression of degenerative brain diseases,[9],suppress the progression of degenerative brain diseases
NC(N)=O [urea],effect on transdermal permeability of the thienopyridine compound,[2],virtually no effect
